Consider ten compounds from patent publication US12448383B2, “Compounds and methods for treatment of viral infections” (priority 2022, dated 2025).

Where only a bound is given, the exact number is not on record here.

Series [1] deals with SARS Coronavirus 2 recombinant with NanoLuc (SARS-CoV2-NLuc) in A549-hACE2 cells. Description: organism not typed. Format: cell-based. The conditions noted are these: 48 h; read-out: SARS-CoV2 EC50.
Series [2] relates to Respiratory syncytial virus recombinant with luciferase (RSV-Luc5) in Normal Human Bronchial Epithelial (NHBE) cells. Description: microbe, parasite or virus in culture. Format: cell-based. As to conditions: 72 h, read-out: RSV NHBE EC50.
Series [3] is described as follows: CC50 MT4 cytotoxicity (Cell-Titer Glo). Format: cell-based. As to conditions: human. An outline of the steps: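 CC50 values are the concentrations cutting viability by 50%, fitted by non-linear regression against untreated (100%) and 2 μM puromycin (0%) controls. Cell-Titer Glo luminescence measured after 4-5 days at 37° C exposure of uninfected MT-4 and HEp-2 cells to 3-fold dilutions spanning 15 nM to 100,000 nM.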

The next series is described as follows: Plasma stability. Format: in vitro ADME. Set-up: unit not given here. The conditions noted are these: 37° C., 2 μM substrate. An outline of the steps:
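LC-MS (Q-Exactive, 5 ppm tolerance, 0.1% formic acid water/acetonitrile gradient) quantified compound in quenched aliquots. Aliquots were taken at 0.05, 0.5, 1, 2, 3 and 4 hr and quenched with internal-standard solution, and supernatants were diluted with water after centrifugation.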

The test system of series [4] is Caco-2 cells (clone C2BBe1). Description: CACO-2 permeability. Format: in vitro ADME. Set-up: unit not given here. The conditions noted are these: for DM Caco2 A to B: apical to basolateral, donor pH 6.5, receiver pH 7.4; for DM Caco2 B to A: basolateral to apical. The essentials:
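A-to-B and B-to-A flux measured by LC-MS/MS from receiver samples taken at 1 and 2 h, with donor sampled at 0 and 2 h and recovery checked. Buffers: pH 6.5 HBSS with 200 μM BNPP on the donor side, pH 7.4 with BSA on the receiver side. Monolayers were 21-day cultures, TEER-verified, in duplicate wells.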

The nature of series [5]: Thermodynamic solubility in pH7 buffered solution. As to conditions: 50 mM phosphate buffer pH7, 150 mM NaCl, ambient temperature, 24 hours. The essentials: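 Solid shaken 24 h at ambient temperature in 50 mM phosphate buffer pH7 with 150 mM NaCl. Supernatant diluted in 30:70 acetonitrile:water and quantified by UPLC-UV.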
The nature of series [6]: Stability in pH2 buffered solution. Format: physicochemical. The conditions noted are these: pH2 phosphate buffer, 40° C.; for pH 2 Stability 24 h % AN: Table N2. An outline of the steps:
(§1)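 UPLC % area-normalized compound peak tracked over 24 hrs at 40° C. (0, 3, 6, 9, 12 and 24 hrs). Samples at 50 μg/mL, prepared from 1 mg/mL acetonitrile stock, in pH2 or pH7 50 mM phosphate/150 mM NaCl buffer.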

Series [7] can be described thus: Stability in pH7 buffered solution. Format: physicochemical. As to conditions: pH7 phosphate buffer, 40° C., Table N2. An outline of the steps:
as §1

As for `CC12CCC(C1)C(C)(C)C2OC(=O)OC[C@H]1O[C@@](C#N)(c2ccc3c(N)ncnn23)[C@H](O)[C@@H]1O` (mixture of isomers) [Compound 48, ((2R,3S,4R,5R)-5-(4-aminopyrrolo[2,1-f][1,2,4]triazin-7-yl)-5-cyano-3,4-dihydroxytetrahydrofuran-2-yl)methyl (1,3,3-trimethylbicyclo[2.2.1]heptan-2-yl) carbonate], the concentration giving a half-maximal response (EC50) came to 14.2 µM in series [1] and 0.167 µM in series [2]. Moreover, in series [3], the CC50 turned out to be 25.5 µM. Also, the “STA Human Plasma 37” value in “Plasma stability” came to 1584. Further, the “DM Caco2 A to B” value in series [4] is 6.19. Besides, the “DM Caco2 B to A” value in series [4] is given as 12.52. Also, the “Sol pH 7” value in series [5] is 0.19. Also, the “pH 2 Stability 24 h % AN” value in series [6] is given as 100 % AN. In addition, in series [7], the “pH 7 Stability 24 h % AN” value is 99 % AN.

In the case of `CC(C)OC(=O)OC[C@H]1O[C@@](C#N)(c2ccc3c(N)ncnn23)[C@H](O)[C@@H]1O` [Compound 4, [(2R,3S,4R,5R)-5-(4-aminopyrrolo[2,1-f][1,2,4]triazin-7-yl)-5-cyano-3,4-dihydroay-tetrahydrofuran-2-yl]methyl isopropyl carbonate], the EC50 in series [1] amounted to 2.67 µM. Moreover, in series [2], the EC50 was 0.774 µM. This compound also displayed a CC50 in series [3] of over 50 µM. Also, the “STA Human Plasma 37” value in “Plasma stability” turned out to be 107.92. In series [4], the “DM Caco2 A to B” value is on record as 0.545 and the “DM Caco2 B to A” value worked out at 5.29. In addition, in series [5], the “Sol pH 7” value came to 1.85. Also, in series [6], the “Stability at pH2, 0 hr” value is recorded as 98.5 % AN; the “Stability at pH2, 3 hr” value is reported as 98.3 % AN; the “Stability at pH2, 6 hr” value is 98.5 % AN; the “Stability at pH2, 9 hr” value worked out at 98.4 % AN. Moreover, in series [6], the “Stability at pH2, 12 hr” value was 98.5 % AN; the “pH 2 Stability 24 h % AN” value was 98 % AN; the “Stability at pH2, 24 hr” value amounted to 98.3 % AN. In addition, the “pH 7 Stability 24 h % AN” value in series [7] is 97 % AN.

Consider `CCOC(=O)OC[C@H]1O[C@@](C#N)(c2ccc3c(N)ncnn23)[C@H](O)[C@@H]1O` [Compound 6, ((2R,3S,4R,5R)-5-(4-aminopyrrolo[2,1-f][1,2,4]triazin-7-yl)-5-cyano-3,4-dihydroxytetrahydrofuran-2-yl)methyl ethyl carbonate], for which the EC50 in series [1] came to 4.42 µM; in series [2] it was 1.01 µM. In series [3], this compound returned a CC50 of over 50 µM. Moreover, the “STA Human Plasma 37” value in the series “Plasma stability” is listed as 55.852. The “DM Caco2 A to B” value in series [4] was 0.21. Moreover, the “DM Caco2 B to A” value in series [4] is recorded as 2.77. In addition, the “Sol pH 7” value in series [5] worked out at 3.02. Moreover, the “pH 2 Stability 24 h % AN” value in series [6] is 100 % AN. Besides, in series [7], the “pH 7 Stability 24 h % AN” value was found to be 100 % AN.

For the compound `CC(C)(C)OC(=O)OC[C@H]1O[C@@](C#N)(c2ccc3c(N)ncnn23)[C@H](O)[C@@H]1O` [Compound 46, ((2R,3S,4R,5R)-5-(4-aminopyrrolo[2,1-f][1,2,4]triazin-7-yl)-5-cyano-3,4-dihydroxytetrahydrofuran-2-yl)methyl tert-butyl carbonate], the EC50 in series [1] was 4.3 µM; in series [2], 1.18 µM. In series [3], this compound returned a CC50 of over 50 µM. In addition, the “STA Human Plasma 37” value in the series “Plasma stability” is on record as 553.13. Further, the “DM Caco2 A to B” value in series [4] is recorded as 0.76. Further, the “DM Caco2 B to A” value in series [4] is listed as 10.66. In addition, in series [5], the “Sol pH 7” value worked out at 0.45. For the same compound, the “pH 2 Stability 24 h % AN” value in series [6] came out at 4 % AN. Also, the “pH 7 Stability 24 h % AN” value in series [7] came out at 8 % AN.

On to `CC1(OC(=O)OC[C@H]2O[C@@](C#N)(c3ccc4c(N)ncnn34)[C@H](O)[C@@H]2O)CCCCC1` [Compound 47, ((2R,3S,4R,5R)-5-(4-aminopyrrolo[2,1-f][1,2,4]triazin-7-yl)-5-cyano-3,4-dihydroxytetrahydrofuran-2-yl)methyl (1-methylcyclohexyl) carbonate], for which the EC50 in series [1] amounted to 3.36 µM. The EC50 in series [2] came to 1.48 µM. This compound also gave a CC50 in series [3] of over 50 µM. For the same compound, the “STA Human Plasma 37” value in “Plasma stability” was determined as 1584. In addition, in series [4], the “DM Caco2 A to B” value was found to be 1.68 and the “DM Caco2 B to A” value is 11.38. The “Sol pH 7” value in series [5] is 0.1. For the same compound, the “pH 2 Stability 24 h % AN” value in series [6] was 1 % AN. For the same compound, the “pH 7 Stability 24 h % AN” value in series [7] turned out to be 3 % AN.

For `CC(C)(OC(=O)OC[C@H]1O[C@@](C#N)(c2ccc3c(N)ncnn23)[C@H](O)[C@@H]1O)c1ccncc1` [Compound 49, ((2R,3S,4R,5R)-5-(4-aminopyrrolo[2,1-f][1,2,4]triazin-7-yl)-5-cyano-3,4-dihydroxytetrahydrofuran-2-yl)methyl (2-(pyridin-4-yl)propan-2-yl) carbonate], the EC50 in series [1] came to 14.3 µM; in series [2] it was 17.7 µM. The CC50 in series [3] is over 50 µM. The “STA Human Plasma 37” value in the series “Plasma stability” is recorded as 1584. The “DM Caco2 A to B” value in series [4] worked out at 0.13. For the same compound, the “DM Caco2 B to A” value in series [4] is reported as 3.48. For the same compound, the “Sol pH 7” value in series [5] was 2.03. In addition, the “pH 2 Stability 24 h % AN” value in series [6] is on record as 97 % AN. Besides, in series [7], the “pH 7 Stability 24 h % AN” value was 94 % AN.

With `CC1(C)[C@@H]2CC[C@@]1(C)[C@@H](OC(=O)OC[C@H]1O[C@@](C#N)(c3ccc4c(N)ncnn34)[C@H](O)[C@@H]1O)C2` [Compound 51, ((2R,3S,4R,5R)-5-(4-aminopyrrolo[2,1-f][1,2,4]triazin-7-yl)-5-cyano-3,4-dihydroxytetrahydrofuran-2-yl)methyl ((1R,2S,4R)-1,7,7-trimethylbicyclo[2.2.1]heptan-2-yl) carbonate], in series [1], the EC50 came to 7.83 µM. Besides, in series [2], the EC50 stood at 0.727 µM. In series [3], the midpoint of cytotoxicity, the CC50, lay at 38.3 µM. In addition, the “STA Human Plasma 37” value in “Plasma stability” is on record as 1366.8. In series [4], the “DM Caco2 A to B” value worked out at 4.35 and the “DM Caco2 B to A” value was 17.19. In series [5], the “Sol pH 7” value turned out to be 0.08. Moreover, in series [6], the “pH 2 Stability 24 h % AN” value is reported as 98 % AN. In addition, the “pH 7 Stability 24 h % AN” value in series [7] amounted to 97 % AN.

Regarding `CC(C)C(=O)O[C@H]1[C@@H](OC(=O)C(C)C)[C@](C#N)(c2ccc3c(N)ncnn23)O[C@@H]1COC(=O)OC(C)(C)C` [Compound 58, (2R,3R,4R,5R)-2-(4-aminopyrrolo[2,1-f][1,2,4]triazin-7-yl)-5-(((tert-butoxycarbonyl)oxy)methyl)-2-cyanotetrahydrofuran-3,4-diyl bis(2-methylpropanoate)], the concentration for a half-maximal effect (EC50) in series [1] stood at 2.24 µM. The EC50 in series [2] was found to be 1.07 µM. Besides, half-maximal cytotoxicity in series [3] (CC50) was put at 27.1 µM. For the same compound, the “STA Human Plasma 37” value in the series “Plasma stability” turned out to be 1584. In series [4], the “DM Caco2 A to B” value was 5.67 and the “DM Caco2 B to A” value stood at 6.86. In series [5], the “Sol pH 7” value stood at 0.02. Also, the “pH 2 Stability 24 h % AN” value in series [6] is given as 2 % AN. Further, the “pH 7 Stability 24 h % AN” value in series [7] turned out to be 7 % AN.

Turning to `CC(C)OC(=O)OC[C@H]1O[C@@](C#N)(c2ccc3c(N)ncnn23)[C@H](OC(=O)C(C)C)[C@@H]1OC(=O)C(C)C` [Compound 59, (2R,3R,4R,5R)-2-(4-aminopyrrolo[2,1-f][1,2,4]triazin-7-yl)-2-cyano-5-(((isopropoxycarbonyl)oxy)methyl)tetrahydrofuran-3,4-diyl bis(2-methylpropanoate)], in series [1], the EC50 amounted to 4.16 µM. The EC50 in series [2] is 0.811 µM. Besides, the CC50 in series [3] was over 50 µM. The “STA Human Plasma 37” value in “Plasma stability” was 84.318. Moreover, in series [4], the “DM Caco2 A to B” value is 11.61 and the “DM Caco2 B to A” value was 17.7. In addition, in series [5], the “Sol pH 7” value was determined as 0.01. In series [6], the “Stability at pH2, 0 hr” value came out at 100.0 % AN; the “Stability at pH2, 3 hr” value is listed as 100.0 % AN; the “Stability at pH2, 6 hr” value came to 100.0 % AN; the “Stability at pH2, 9 hr” value amounted to 100.0 % AN. Also, in series [6], the “Stability at pH2, 12 hr” value is 98.9 % AN; the “pH 2 Stability 24 h % AN” value is 98 % AN; the “Stability at pH2, 24 hr” value was 97.9 % AN. The “pH 7 Stability 24 h % AN” value in series [7] was 93 % AN.

With `CC(=O)O[C@H]1[C@@H](OC(C)=O)[C@](C#N)(c2ccc3c(N)ncnn23)O[C@@H]1COC(=O)OC(C)C` [Compound 65, (2R,3R,4R,5R)-2-(4-aminopyrrolo[2,1-f][1,2,4]triazin-7-yl)-2-cyano-5-(((isopropoxycarbonyl)oxy)methyl)tetrahydrofuran-3,4-diyl diacetate], the EC50 in series [1] was determined as 3.64 µM. In addition, the EC50 in series [2] amounted to 0.185 µM. The CC50 in series [3] is over 50 µM. The “STA Human Plasma 37” value in “Plasma stability” was 14.9. Moreover, in series [4], the “DM Caco2 A to B” value was 3.07 and the “DM Caco2 B to A” value was determined as 7.23. Moreover, the “Sol pH 7” value in series [5] turned out to be 0.045. Moreover, the “pH 2 Stability 24 h % AN” value in series [6] was 90 % AN. Also, in series [7], the “pH 7 Stability 24 h % AN” value turned out to be 80 % AN.
